From US9446116B2, “Peptide sequences and compositions” (priority 2006, dated 2016) come the findings set out here.

One assay relates to primary splenocytes. Format: cell-based, C57BL/6-Tg(HLA-A2.1)1Enge/J mice. The note with it: stimulation with P6 (data not shown).
Another assay has as its system Influenza A/PR/8/34. Format: in vivo, C57BL/6-Tg(HLA-A2.1)1Enge/J mice.

For the substance IIGILHLILWILDRLFFKCIYRLF [P6], the IL-4 production entry in the assay on primary splenocytes was “failure of stimulation with P6 to induce any IL-4 production”.
As for “NRP-v: Lysozyme (Sigma) denatured by boiling, used as the control non relevant preparation”, the “succumbed to infection (mortality)” value in the assay with Influenza A/PR/8/34 (CD8 depletion (anti-CD8 sera days 19 and 22), […], FIG. 3A) was determined as 100%. Further, the mortality rate in the assay with Influenza A/PR/8/34 (absence of CD8 depletion (irrelevant sera), FIG. 3B) came out at 100%.
